Columns and labels:
[1] = biological target: T1, Purified hog pancreatic lipase (type IV, Sigma) (Sus scrofa, UniProt P00591); assay: Hydrolysis of S-acyl substrates by purified hog pancreatic lipase, DTNB colorimetry at 412 nm, no PMSF; assay type: biochemical; conditions: for Relative activity (%): relative activity of BLME for lipase expressed as 100, 10 μl lipase solution
T1 construct: purchased Sigma Chemical Co. type IV; host or cells: hog pancreas
T1 sequence (P00591 1-450): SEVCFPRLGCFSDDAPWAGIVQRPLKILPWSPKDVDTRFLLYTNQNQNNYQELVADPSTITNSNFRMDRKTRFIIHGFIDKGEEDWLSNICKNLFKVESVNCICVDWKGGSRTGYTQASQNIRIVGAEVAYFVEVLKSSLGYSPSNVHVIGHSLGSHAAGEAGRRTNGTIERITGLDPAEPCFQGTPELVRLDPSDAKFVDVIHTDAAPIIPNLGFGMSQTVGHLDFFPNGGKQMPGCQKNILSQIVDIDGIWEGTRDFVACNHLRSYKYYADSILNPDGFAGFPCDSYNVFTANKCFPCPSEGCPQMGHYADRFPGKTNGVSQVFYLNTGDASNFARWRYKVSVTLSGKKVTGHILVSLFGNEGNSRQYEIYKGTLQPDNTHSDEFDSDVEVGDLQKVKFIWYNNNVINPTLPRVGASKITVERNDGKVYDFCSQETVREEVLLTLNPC
Procedure: The determination of lipase activity by the present invention is carried out based on the following principle. That is, a solution of the substrate [an S-acyl compound of the formula (I), (II), (III) or (IV)] in an alcohol is added to the reaction buffer solution containing the sample with lipase and a chromogenic sulfhydryl reagent which reacts with a SH-group-containing compound [hereinafter, referred to as "SH-compound" ] released from the substrate by lipase. The amount of the released SH-compound or the intensity of the colored reaction mixture is proportional to the lipase activity in the sample, and therefore, the lipase activity can be determined by subjecting the resulting colored reaction mixture to colorimetric readings. As a sulfhydryl reagent, 5,5'-dithiobis(2-nitrobenzoic acid) [hereinafter, referred to as "DTNB" ] is used. In case of the measurement of lipase activity by using the S-acyl compound (I) (X is O) and DTNB, it is assumed that the reaction will proceed as shown in the following scheme: [drawing 6]
(§1) To test tubes I and II are added (c) (1 ml) and a test sample (10 - 1,500 BALB unit of lipase or about 10 μl of human serum), and further to the test tube I is added (b) (20 μl; the concentration of PMSF: about 0.4 mM) and the mixture is allowed to stand at room temperature for 5 minutes to inactivate the existing serum caboxylesterase and/or arylesterase.
(§2) To the test tube I is further added a substrate (a) (0.1 ml). The test tubes I and II are kept for 30 minutes at 38° C, and immediately to the test tube II is added the substrate (a) (0.1 ml) and to these test tubes I and II is added acetone (d) (2 ml) to stop the reaction. After mixed well, the tubes I and II were centrifuged (700 × g, for 10 minutes) to remove insoluble serum proteins and turbidity due to serum lipids and the substrate. The optical density of the supernatant of the tube I is measured at 412 nm in a cuvette of 1 cm light path (OD412 ^1 cm ) against that of the tube II.
Purified hog pancreatic lipase (type IV, a product of Sigma Chemical Co.) is dissolved in 1 % human serum albumin solution to give a solution (10 μg/ml). The lipase activity in 10 μl of this solution (correspondingto 0.1 μ g of lipase) is determined in the same manner as described in Example 2 (substrate: BALB) in the absence of PMSF. The lipase activity measured is 800 BALB units.
One μmole of the released SH-group from the substrate gives 4.75 of OD412 ^1 cm under the conditions described in Example 11, and therefore 1 mg of the purified hog pancreatic lipase is calculated to hydrolyze the S-acyl group of the BALB to give a free SH-group at the rate of 1,670 μmoles/30 minutes.
The same lipase solution (10 μl) as prepared in Example 11 is treated in the same manner as described in Example 2 by using various S-acyl compounds as the substrate in the absence of PMSF. The relative activity of the S-acyl compounds are measured. The results are shown in Table 4, wherein the relative activity of BLME for lipase is expressed as 100.

lipase = assay: Inhibition of lipase by PMSF (rate of hydrolysis of S-acyl substrate, DTNB colorimetry); assay type: biochemical; conditions: substrate BLME; 0 - 2.0 mM of PMSF
Procedure: as §1
as §2, with “After mixed well, the tubes I and II were centrifuged (700 × g, for 10 minutes) to remove insoluble serum proteins and turbidity due to serum lipids and the substrate.” left out, “II. […]” for “II.”
(§3) In the same manner as described in Example 2, lipase of 1,100 BALB unit, carboxylesterase of 450 BALB unit or arylesterase of 60 BALB unit is treated (substrate: BALB), wherein the concentration of PMSF is varied, and then the rate of hydrolysis of BALB (relative activity) is measured.
In the same manner as described in Example 3, lipase of 1,100 MPB unit, carboxylesterase of 140 MPB unit or arylesterase of 68 MPB unit is treated (substrate: MPB), wherein the concentration of PMSF is varied, and then the rate of hydrolysis of MPB (relative activity) is measured. […]

carboxylesterase = assay: Inhibition of carboxylesterase by PMSF (rate of hydrolysis of S-acyl substrate, DTNB colorimetry); assay type: biochemical
Procedure: as §1, §2
Besides, test tube III is treated in the same manner as test tube I except that the enzyme inhibitor (b) is omitted.
In the same manner as described in Example 2, the determination of lipase activity is carried out except that the substrate (a' ) is used instead of (a).
as §3
(§4) In the same manner as described in Example 3, lipase of 1,100 MPB unit, carboxylesterase of 140 MPB unit or arylesterase of 68 MPB unit is treated (substrate: MPB), wherein the concentration of PMSF is varied, and then the rate of hydrolysis of MPB (relative activity) is measured.
In the same manner as described in Example 9, the determination of lipase activity is carried out by using BLME as the substrate. […]

arylesterase = assay: Inhibition of arylesterase by PMSF (rate of hydrolysis of S-acyl substrate, DTNB colorimetry); assay type: biochemical
Procedure: as §1
as §2, with “After mixed well, the tubes I and II were centrifuged (700 × g, for 10 minutes) to remove insoluble serum proteins and turbidity due to serum lipids and the substrate.” left out, “II. […]” for “II.”
as §3, §4

[2] = Storage / heat stability of reagent solutions in alcohol; assay type: physicochemical; conditions: heated at 120° C for 30 minutes
Excerpt: According to the present method, the measurement of lipase activity can be easily carried out by using so small amount of sample as 1/10 to 1/100 of that in the known methods described hereinbefore and within a shorter time. Moreover, the substrate becomes micellar merely by mixing and shaking with a buffer solution without addition of an emulsifier or vigorous stirring, and further, the solution of the substrate in an alcohol is stable at room temperature for more than 6 months.
The enzyme inhibitor (e.g. PMSF) is preferably preserved in the form of an alcoholic solution (e.g. ethanolic solution). PMSF in an alcohol solution is stable even if it is heated at 120° C for 30 minutes, but if the solution is mixed with the substrate (I), (II), (III) or (IV) in an alcohol, PMSF undergoes chemical reaction with the substrate to lose its action as an esterase-inhibitor, and therefore, both of the solutions must be preserved separately.

Q: With CCCC(=O)OC(CSC(=O)CCC)CSC(=O)CCC [drawing 28] as the compound, how does the “Relative activity (%)” value ([1]; absence of PMSF) read?
A: The value was 35%.

Q: For CCCC(=O)OCC(CSC(=O)CCC)SC(=O)CCC (stereo not shown) [BALB], which “lipase activity measured, OD412 (I-II) x 1,000” value ([1]; 0.1 μg hog pancreatic lipase, 30 minutes at 38° C, absence of PMSF) is on record?
A: The value was 800 BALB units.

Q: And the “activity for lipase (in words)” value ([1]; absence of PMSF)?
A: Its value is “extremely high activity”.

Q: And the “rate of hydrolysis of the S-acyl group to free SH-group by 1 mg of lipase” value ([1]; per 1 mg purified hog pancreatic lipase, calculated from 4.75 OD412 per μmole SH)?
A: Its value is 1,670 μmoles/30 minutes.

Q: For CCCC(=O)OC(CSC(=O)CCC)CSC(=O)CCC [2-butyroyloxy-1,3-bisbutyroylthiopropane], which “relative activity as fraction of the relative activity of BALB” value ([1]; absence of PMSF) is on record?
A: The value was “less than 1/10”.

Q: With CCCCCCCCCCCC(=O)OCCSC(=O)CCC [BLME, S-butyroyl-O-lauroylmercaptoethanol] as the compound, how does the “Relative activity (%)” value ([1]; absence of PMSF) read?
A: The value was 100%.

Q: With O=S(=O)(F)Cc1ccccc1 [PMSF, phenylmethylsulfonyl fluoride] as the compound, how does the “Inhibition of the lipase activity” value (lipase) read?
A: The value was “negligible”.

Q: What about the “50 % inhibitory concentration for carboxylesterase as fraction of that for lipase” value (carboxylesterase; substrate BALB) of the same compound?
A: Its value is “about 1/100”.

Q: What about the carboxylesterase activity inhibited (carboxylesterase; substrate BLME, 0.2 mM or more of PMSF) of the same compound?
A: Its carboxylesterase activity inhibited is no less than 90%.

Q: And the “50 % inhibitory concentration for carboxylesterase as fraction of that for lipase” value (carboxylesterase; substrate MPB)?
A: Its value is “about 1/200”.

Q: What about the “50 % inhibitory concentration for arylesterase as fraction of that for lipase” value (arylesterase; substrate BALB) of the same compound?
A: The value was 1/300.

Q: And the “50 % inhibitory concentration for arylesterase as fraction of that for lipase” value (arylesterase; substrate MPB)?
A: Its value is 1/400.

Q: And the “stability of alcohol solution on heating” value [2]?
A: Its value is “stable”.
